# Measured values published in ChEMBL document CHEMBL4665643 (Bioorg Med Chem Lett, 2019).
# Tests used:
# [1] = target: Tyrosine-protein kinase JAK2 (Homo sapiens, UniProt O60674)
# Description: Inhibition of recombinant human JAK2 (812 to 1132 residues) expressed in insect cells using Y1-B as substrate incubated for 30 mins by microfluidic mobility shift assay
# [2] = target: Tyrosine-protein kinase JAK1 (Homo sapiens, UniProt P23458); test: biochemical
# Description: Inhibition of recombinant human JAK1 (854 to 1154 residues) expressed in insect cells using Y1-B as substrate incubated for 30 mins by microfluidic mobility shift assay
# [3] = target: Janus Kinase (JAK) (Homo sapiens, UniProt P52333+P23458+O60674+P29597); details: beas-2b
# Description: Inhibition of JAK in human BEAS-2B cells assessed as reduction in IL13-induced STAT6 phosphorylation incubated for 1 hr followed by IL13 addition and measured after 15 mins by immunofluorescence assay
# [4] = in vitro; details: dog, MDCK
# Description: Apparent permeability across apical to basolateral side in MDCK cells at 10 uM incubated upto 180 mins by LC/MS-MS analysis
# [5] = Lipophilicity, logD of compound; assay type: physicochemical; details: octanol/water
# [6] = Metabolic stability in human liver microsomes assessed as intrinsic clearance at 1 uM measured upto 60 mins by LC-MS/MS analysis; assay type: ADME, Microsome; details: read-out: CLH
# [7] = in vitro; details: dog, MDCK; remark: listed apart in the source
# Description: Efflux ratio of apparent permeability basolateral to apical over apical to basolateral side in MDCK cells at 10 uM incubated upto 180 mins by LC/MS-MS analysis
# [8] = target: LRRK2 (Homo sapiens, UniProt Q5S007); test: Inhibition of recombinant human GST-tagged LRRK2 (970 to 2527 residues) expressed in baculovirus expression system using LRRKtide as substrate at 0.1 uM incubated for 60 mins by Adapta assay relative to control; details: probe LRRKtide
# Chain of LRRK2 (Q5S007 whole entry, the tested form may be a part): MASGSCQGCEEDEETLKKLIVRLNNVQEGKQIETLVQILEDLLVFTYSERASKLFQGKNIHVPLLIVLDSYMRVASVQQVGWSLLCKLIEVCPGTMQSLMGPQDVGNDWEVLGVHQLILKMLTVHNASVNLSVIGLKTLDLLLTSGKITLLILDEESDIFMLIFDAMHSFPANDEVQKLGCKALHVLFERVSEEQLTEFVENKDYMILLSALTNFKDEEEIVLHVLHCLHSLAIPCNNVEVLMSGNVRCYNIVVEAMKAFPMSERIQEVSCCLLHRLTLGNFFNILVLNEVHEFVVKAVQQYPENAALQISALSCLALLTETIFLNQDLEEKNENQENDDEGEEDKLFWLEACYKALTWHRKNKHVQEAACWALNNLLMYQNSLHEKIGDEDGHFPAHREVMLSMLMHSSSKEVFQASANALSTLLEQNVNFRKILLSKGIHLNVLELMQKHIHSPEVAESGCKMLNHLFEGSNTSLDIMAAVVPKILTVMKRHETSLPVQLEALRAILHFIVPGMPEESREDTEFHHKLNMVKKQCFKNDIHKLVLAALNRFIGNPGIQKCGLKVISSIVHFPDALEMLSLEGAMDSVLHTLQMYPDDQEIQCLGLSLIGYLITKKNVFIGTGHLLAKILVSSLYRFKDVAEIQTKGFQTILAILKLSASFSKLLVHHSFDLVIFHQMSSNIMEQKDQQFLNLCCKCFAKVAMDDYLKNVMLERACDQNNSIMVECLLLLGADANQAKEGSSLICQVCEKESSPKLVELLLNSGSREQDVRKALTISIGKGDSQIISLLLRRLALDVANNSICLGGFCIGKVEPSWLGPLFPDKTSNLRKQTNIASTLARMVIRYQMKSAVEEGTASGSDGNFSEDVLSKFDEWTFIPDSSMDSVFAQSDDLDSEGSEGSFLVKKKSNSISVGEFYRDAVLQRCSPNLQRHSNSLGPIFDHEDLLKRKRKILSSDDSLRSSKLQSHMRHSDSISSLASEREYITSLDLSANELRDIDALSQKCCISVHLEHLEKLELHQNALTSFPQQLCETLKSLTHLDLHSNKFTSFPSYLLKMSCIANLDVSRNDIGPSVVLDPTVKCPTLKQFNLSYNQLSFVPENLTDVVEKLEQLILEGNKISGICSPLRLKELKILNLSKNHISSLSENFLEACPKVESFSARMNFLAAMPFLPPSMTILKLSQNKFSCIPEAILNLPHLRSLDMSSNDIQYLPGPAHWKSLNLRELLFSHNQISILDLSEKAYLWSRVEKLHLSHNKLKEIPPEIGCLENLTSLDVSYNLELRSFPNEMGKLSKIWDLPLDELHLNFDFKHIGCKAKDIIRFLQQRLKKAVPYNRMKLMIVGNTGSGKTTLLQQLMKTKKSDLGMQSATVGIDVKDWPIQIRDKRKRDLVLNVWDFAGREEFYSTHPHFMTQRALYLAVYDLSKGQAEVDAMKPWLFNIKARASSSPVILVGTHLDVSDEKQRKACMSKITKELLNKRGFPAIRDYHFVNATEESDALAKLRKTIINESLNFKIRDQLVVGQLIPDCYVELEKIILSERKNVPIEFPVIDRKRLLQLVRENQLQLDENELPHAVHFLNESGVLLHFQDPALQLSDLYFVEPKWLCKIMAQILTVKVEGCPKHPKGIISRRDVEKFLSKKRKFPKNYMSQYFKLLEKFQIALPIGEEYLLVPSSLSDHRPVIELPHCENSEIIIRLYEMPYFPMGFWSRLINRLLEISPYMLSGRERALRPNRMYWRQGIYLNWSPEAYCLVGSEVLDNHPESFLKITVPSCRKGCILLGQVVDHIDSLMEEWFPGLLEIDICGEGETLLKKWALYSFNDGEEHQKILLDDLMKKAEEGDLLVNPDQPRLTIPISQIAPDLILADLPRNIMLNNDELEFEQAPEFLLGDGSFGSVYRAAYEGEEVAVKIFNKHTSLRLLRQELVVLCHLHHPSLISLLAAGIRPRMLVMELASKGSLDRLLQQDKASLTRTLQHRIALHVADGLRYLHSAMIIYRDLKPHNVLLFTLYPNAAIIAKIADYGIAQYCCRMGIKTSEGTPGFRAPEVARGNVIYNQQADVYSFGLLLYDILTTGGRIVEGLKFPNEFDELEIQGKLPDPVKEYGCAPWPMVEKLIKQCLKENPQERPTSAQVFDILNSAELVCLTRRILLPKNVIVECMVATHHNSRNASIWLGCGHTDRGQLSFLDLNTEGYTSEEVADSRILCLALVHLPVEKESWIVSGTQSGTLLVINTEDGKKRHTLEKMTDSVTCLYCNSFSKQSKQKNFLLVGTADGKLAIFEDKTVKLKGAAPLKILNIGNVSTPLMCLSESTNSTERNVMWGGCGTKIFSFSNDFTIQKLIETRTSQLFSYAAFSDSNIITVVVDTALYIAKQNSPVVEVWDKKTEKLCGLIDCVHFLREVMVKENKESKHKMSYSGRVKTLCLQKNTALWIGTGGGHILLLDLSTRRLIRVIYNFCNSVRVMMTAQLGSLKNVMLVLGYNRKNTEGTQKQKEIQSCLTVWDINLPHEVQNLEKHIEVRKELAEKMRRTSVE
# Chain of Tyrosine-protein kinase JAK2 (O60674 whole entry): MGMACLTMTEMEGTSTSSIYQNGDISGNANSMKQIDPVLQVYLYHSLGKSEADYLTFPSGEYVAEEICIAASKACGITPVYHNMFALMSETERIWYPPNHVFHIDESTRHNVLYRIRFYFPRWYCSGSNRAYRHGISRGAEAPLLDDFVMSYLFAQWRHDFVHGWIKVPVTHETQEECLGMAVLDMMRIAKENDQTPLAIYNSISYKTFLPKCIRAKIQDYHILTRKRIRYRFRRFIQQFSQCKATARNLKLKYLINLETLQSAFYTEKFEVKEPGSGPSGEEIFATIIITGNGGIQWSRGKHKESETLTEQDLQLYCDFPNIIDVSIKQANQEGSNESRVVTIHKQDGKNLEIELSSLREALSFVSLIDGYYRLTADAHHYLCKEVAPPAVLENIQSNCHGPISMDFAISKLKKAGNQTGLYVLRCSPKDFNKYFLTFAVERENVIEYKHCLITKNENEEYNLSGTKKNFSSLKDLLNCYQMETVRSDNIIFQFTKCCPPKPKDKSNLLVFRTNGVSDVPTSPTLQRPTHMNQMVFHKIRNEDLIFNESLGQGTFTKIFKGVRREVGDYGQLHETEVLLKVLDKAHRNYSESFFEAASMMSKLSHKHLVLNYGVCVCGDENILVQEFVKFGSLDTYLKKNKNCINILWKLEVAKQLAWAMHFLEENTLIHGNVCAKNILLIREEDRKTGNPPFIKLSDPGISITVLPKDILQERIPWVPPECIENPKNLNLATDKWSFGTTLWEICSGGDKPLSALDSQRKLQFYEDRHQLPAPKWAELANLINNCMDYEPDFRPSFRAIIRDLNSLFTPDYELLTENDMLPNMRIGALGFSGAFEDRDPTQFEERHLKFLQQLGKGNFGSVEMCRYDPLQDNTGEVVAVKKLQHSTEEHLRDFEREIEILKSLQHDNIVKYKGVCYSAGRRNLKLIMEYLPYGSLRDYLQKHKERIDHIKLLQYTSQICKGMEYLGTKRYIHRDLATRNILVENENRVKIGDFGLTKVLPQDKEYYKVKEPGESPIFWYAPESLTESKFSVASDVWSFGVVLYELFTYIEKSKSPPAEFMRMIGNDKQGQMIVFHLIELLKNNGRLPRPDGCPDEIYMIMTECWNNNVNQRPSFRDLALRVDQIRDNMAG
# Chain of Tyrosine-protein kinase JAK1 (P23458 whole entry): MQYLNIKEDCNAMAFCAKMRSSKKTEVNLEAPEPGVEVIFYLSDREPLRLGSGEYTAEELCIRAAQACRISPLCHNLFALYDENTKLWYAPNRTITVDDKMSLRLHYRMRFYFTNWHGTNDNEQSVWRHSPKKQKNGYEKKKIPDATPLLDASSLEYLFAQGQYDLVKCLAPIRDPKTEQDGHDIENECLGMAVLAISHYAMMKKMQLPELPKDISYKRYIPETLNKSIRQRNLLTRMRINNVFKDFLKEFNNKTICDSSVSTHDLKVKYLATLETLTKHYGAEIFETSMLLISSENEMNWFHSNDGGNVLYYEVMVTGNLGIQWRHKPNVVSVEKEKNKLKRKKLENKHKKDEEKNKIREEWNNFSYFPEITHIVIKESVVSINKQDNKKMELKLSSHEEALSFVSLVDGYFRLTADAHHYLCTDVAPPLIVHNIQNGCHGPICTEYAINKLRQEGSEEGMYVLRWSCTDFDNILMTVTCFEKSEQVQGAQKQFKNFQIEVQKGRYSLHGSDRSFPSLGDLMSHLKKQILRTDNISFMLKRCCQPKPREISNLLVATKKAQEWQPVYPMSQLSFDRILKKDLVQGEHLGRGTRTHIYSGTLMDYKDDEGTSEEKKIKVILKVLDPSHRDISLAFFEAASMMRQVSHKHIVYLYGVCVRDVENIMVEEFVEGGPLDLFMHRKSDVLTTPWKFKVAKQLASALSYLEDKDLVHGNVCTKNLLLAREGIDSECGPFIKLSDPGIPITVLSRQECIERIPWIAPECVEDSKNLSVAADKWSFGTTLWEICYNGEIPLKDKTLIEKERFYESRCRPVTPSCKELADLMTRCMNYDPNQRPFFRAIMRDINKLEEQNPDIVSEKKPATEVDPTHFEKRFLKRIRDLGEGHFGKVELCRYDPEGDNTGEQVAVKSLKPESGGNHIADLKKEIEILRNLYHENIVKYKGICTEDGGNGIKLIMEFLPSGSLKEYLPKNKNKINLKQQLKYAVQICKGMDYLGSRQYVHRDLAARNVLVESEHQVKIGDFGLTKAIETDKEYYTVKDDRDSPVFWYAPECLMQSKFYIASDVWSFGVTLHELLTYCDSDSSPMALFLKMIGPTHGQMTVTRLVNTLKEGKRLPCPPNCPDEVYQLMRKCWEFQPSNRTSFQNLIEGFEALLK
Ki [1],Ki [2],IC50 [3],"Papp A→B at 3 h, 10 µM [4]",logD [5],CLint scaled at 1 µM [6],"efflux ratio at 3 h, 10 µM [7]","inhibition at 1 h, 0.1 µM [8]",SMILES
0.28 nM,0.91 nM,,,,,,,Cn1cc(NC(=O)c2cnn3cccnc23)c(-c2cc(Cl)ccc2C2CC2)n1
,,370 nM,,,,,,COc1cc2[nH]ncc2cc1-c1n[nH]cc1NC(=O)c1cnn2cccnc12
1.1 nM,3.9 nM,,,,,,,Cc1nc(-c2cc(Cl)ccc2OC(F)F)c(NC(=O)c2cnn3cccnc23)[nH]1
,,,3.6 ×10⁻⁶ cm/s,,,,,CC[C@@H]1CN(C(=O)NCC(F)(F)F)C[C@@H]1c1cnc2cnc3[nH]ccc3n12 [UPADACITINIB]
0.27 nM,0.9 nM,22 nM,,,,,,N#Cc1ccc(OC(F)F)c(-c2n[nH]cc2NC(=O)c2cnn3cccnc23)c1
4.7 nM,4.3 nM,93 nM,,,,,,COc1ccc(Cl)cc1-c1nn(C)cc1NC(=O)c1cncc2cn(C)nc12
0.78 nM,0.6 nM,20 nM,,,,,,COc1ccc(Cl)cc1-c1nn(C)cc1NC(=O)c1cncc2c[nH]nc12
0.052 nM,0.075 nM,40 nM,1.6 ×10⁻⁶ cm/s,1.6,4.4 mL/min/kg,1,89%,O=C(Nc1c[nH]nc1-c1cc2cn[nH]c2cc1OC(F)F)c1cnn2cccnc12
3.5 nM,39 nM,> 1000 nM,,,,,,Cn1ncc(NC(=O)c2cnn3cccnc23)c1-c1cc(Cl)ccc1Cl
,2.9 nM,210 nM,6.2 ×10⁻⁶ cm/s,,,0.81,,C[C@@H](O)c1nc2cnc3[nH]ccc3c2n1[C@H]1CCCOC1
0.19 nM,0.71 nM,34 nM,,,,,,O=C(Nc1c[nH]nc1-c1cc(F)ccc1OC(F)F)c1cnn2cccnc12
1.2 nM,9.2 nM,,,,,,,COc1c(F)cc(Cl)cc1-c1n[nH]cc1NC(=O)c1cnn2cccnc12
0.1 nM,0.99 nM,34 nM,,,,,,Cc1ccn2ncc(C(=O)Nc3c[nH]nc3-c3cc(Cl)ccc3OC(F)F)c2n1
0.23 nM,0.46 nM,11 nM,,,,,,CSc1ccc(Cl)cc1-c1nn(C)cc1NC(=O)c1cnn2cccnc12
0.045 nM,0.15 nM,2.8 nM,15 ×10⁻⁶ cm/s,3.4,15 mL/min/kg,1,91%,O=C(Nc1c[nH]nc1-c1cc(I)ccc1OC(F)F)c1cnn2cccnc12
0.45 nM,0.99 nM,58 nM,,,,,,COc1ccc(Cl)cc1-c1nc(C)sc1NC(=O)c1cnn2cccnc12
,23 nM,1300 nM,16 ×10⁻⁶ cm/s,,,0.81,,Cc1cc(Nc2nccc3nc(-c4c(Cl)cc(C#N)cc4Cl)[nH]c23)ncn1
0.34 nM,1.4 nM,27 nM,,,,,,Cc1ccc(OC(F)F)c(-c2n[nH]cc2NC(=O)c2cnn3cccnc23)c1
0.29 nM,0.95 nM,15 nM,,,,,,COc1ccc(Cl)c(F)c1-c1n[nH]cc1NC(=O)c1cnn2cccnc12
0.057 nM,0.11 nM,36 nM,,,,,,O=C(Nc1c[nH]nc1-c1cc(Cl)c(O)cc1OC(F)F)c1cnn2cccnc12
0.8 nM,1.4 nM,54 nM,,,,,,CCOc1ccc(Cl)cc1-c1n[nH]cc1NC(=O)c1cnn2cccnc12
8.6 nM,45 nM,,,,,,,Cn1cc(NC(=O)c2cnn3cccnc23)c(-c2cc(Cl)ccc2CO)n1
0.047 nM,0.12 nM,3.3 nM,17 ×10⁻⁶ cm/s,3.2,15 mL/min/kg,1.2,86%,O=C(Nc1c[nH]nc1-c1cc(Br)ccc1OC(F)F)c1cnn2cccnc12
13 nM,32 nM,,,,,,,Cn1cc(NC(=O)c2cnn3cccnc23)c(-c2cc(Cl)ccc2O)n1

Ki [1],Ki [2],IC50 [3],"Papp A→B at 3 h, 10 µM [4]",logD [5],CLint scaled at 1 µM [6],"efflux ratio at 3 h, 10 µM [7]","inhibition at 1 h, 0.1 µM [8]",SMILES
,360 nM,> 1000 nM,16 ×10⁻⁶ cm/s,,,0.94,,CCn1c(C(=O)N(C2CC2)C2CC2)cc2c3c(ncn3C)c(Nc3cc(C)n(C)n3)nc21 [BMS-911543]
0.62 nM,1.9 nM,38 nM,,,,,,COc1ccc(Cl)cc1-c1nn(C)cc1NC(=O)c1cncc2cccnc12
0.86 nM,3.3 nM,,,,,,,O=C(Nc1c[nH]nc1-c1ccccc1OC(F)F)c1cnn2cccnc12
0.16 nM,0.31 nM,140 nM,,,,,,COc1cc(O)c(Cl)cc1-c1n[nH]cc1NC(=O)c1cnn2cccnc12
0.45 nM,1.3 nM,21 nM,,,,,,O=C(Nc1c[nH]nc1-c1cc(Cl)ccc1OC1CC1)c1cnn2cccnc12
730 nM,370 nM,,,,,,,COc1ccc(Cl)cc1-c1nn(C)cc1NC(=O)c1cncc2[nH]nnc12
0.16 nM,0.56 nM,14 nM,,,,,,O=C(Nc1c[nH]nc1-c1c(OC(F)F)ccc(Cl)c1F)c1cnn2cccnc12
2.6 nM,5.7 nM,,,,,,,COc1ccc(Cl)cc1-c1nn(C)cc1NC(=O)c1cncc2[nH]cnc12
0.49 nM,2.1 nM,64 nM,,,,,,O=C(Nc1c[nH]nc1-c1cc(Cl)ccc1OC(F)(F)F)c1cnn2cccnc12
0.5 nM,1.8 nM,36 nM,,,,,,O=C(Nc1c[nH]nc1-c1cc(Cl)ccc1OC(F)F)c1cncc2ccoc12
0.79 nM,2.2 nM,42 nM,,,,,,COc1cc(F)c(Cl)cc1-c1n[nH]cc1NC(=O)c1cnn2cccnc12
0.078 nM,,13 nM,,,,,,C#Cc1ccc2ncc(C(=O)Nc3c[nH]nc3-c3cc(Cl)ccc3OC(F)F)n2n1
2 nM,7.9 nM,,,,,,,CC(C)Oc1ccc(Cl)cc1-c1nn(C)cc1NC(=O)c1cnn2cccnc12
0.19 nM,0.53 nM,13 nM,,,,,,CCc1ccc(OC(F)F)c(-c2n[nH]cc2NC(=O)c2cnn3cccnc23)c1
0.96 nM,5.6 nM,42 nM,,,,,,O=C(Nc1c[nH]nc1-c1cc(Cl)ccc1OC(F)F)c1cnc2[nH]ccc2n1
,,,20 ×10⁻⁶ cm/s,2.9,,,,Cn1cc(NC(=O)c2cnn3cccnc23)c(-c2cc(Cl)ccc2Cl)n1
0.042 nM,0.19 nM,4 nM,15 ×10⁻⁶ cm/s,3.3,11 mL/min/kg,0.83,99%,Nc1nn2cccnc2c1C(=O)Nc1c[nH]nc1-c1cc(Cl)ccc1OC(F)F
2.4 nM,7.8 nM,,,,,,,O=C(Nc1c[nH]nc1-c1cc(Cl)ccc1OC(F)F)c1cnn2cc(F)cnc12
0.071 nM,0.21 nM,5 nM,,,,,,O=C(Nc1c[nH]nc1-c1cc(Cl)ccc1OC(F)F)c1cnc2cccnn12
0.17 nM,0.51 nM,9.2 nM,,,,,,O=C(Nc1c[nH]nc1-c1cc(Cl)ccc1OC(F)F)c1cncc2scnc12
0.085 nM,0.47 nM,20 nM,,,,,,O=C(Nc1c[nH]nc1-c1cc(Cl)ccc1OC(F)F)c1snc2cccnc12
4 nM,12 nM,,,,,,,Cn1cc(NC(=O)c2cnn3cccnc23)c(-c2cc(Cl)ccc2CCO)n1
0.23 nM,0.85 nM,26 nM,,,,,,O=C(Nc1c[nH]nc1-c1cc(Cl)ccc1SC(F)F)c1cnn2cccnc12
0.36 nM,0.89 nM,23 nM,,,,,,COc1ccc(Cl)cc1-c1n[nH]cc1NC(=O)c1cnn2cccnc12
